“Also recorded” adds a separate entry of the source. Where two headings read alike, the source gives them in different places.
What was measured:
[1] = target: T1, NOR-1 (Homo sapiens, UniProt Q92570); assay: Gal4 hybrid reporter gene assay, selectivity profiling (NOR-1); format: cell-based; conditions: result in words, at 10 µM
T1 construct: pFA-CMV-NOR-1-LBD; expressed in transfected cells; host or cells: HEK293T
T1 sequence (Q92570 394-623 limits assumed): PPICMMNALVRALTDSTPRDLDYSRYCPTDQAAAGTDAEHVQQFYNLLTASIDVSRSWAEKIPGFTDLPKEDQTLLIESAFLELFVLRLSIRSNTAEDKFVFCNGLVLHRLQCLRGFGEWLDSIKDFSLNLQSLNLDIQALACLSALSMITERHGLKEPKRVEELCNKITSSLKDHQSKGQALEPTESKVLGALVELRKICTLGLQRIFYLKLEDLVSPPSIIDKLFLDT

[2] = target: T2, Nurr1 homodimer (NurRE) (Homo sapiens, UniProt P43354); assay: Full-length Nurr1 reporter gene assay, response element NurRE; format: cell-based
T2 construct: The full length human nuclear receptor Nurr1 (pcDNA3.1-hNurr1-NE; Addgene plasmid #102363); host or cells: HEK293T
T2 sequence (P43354 whole entry): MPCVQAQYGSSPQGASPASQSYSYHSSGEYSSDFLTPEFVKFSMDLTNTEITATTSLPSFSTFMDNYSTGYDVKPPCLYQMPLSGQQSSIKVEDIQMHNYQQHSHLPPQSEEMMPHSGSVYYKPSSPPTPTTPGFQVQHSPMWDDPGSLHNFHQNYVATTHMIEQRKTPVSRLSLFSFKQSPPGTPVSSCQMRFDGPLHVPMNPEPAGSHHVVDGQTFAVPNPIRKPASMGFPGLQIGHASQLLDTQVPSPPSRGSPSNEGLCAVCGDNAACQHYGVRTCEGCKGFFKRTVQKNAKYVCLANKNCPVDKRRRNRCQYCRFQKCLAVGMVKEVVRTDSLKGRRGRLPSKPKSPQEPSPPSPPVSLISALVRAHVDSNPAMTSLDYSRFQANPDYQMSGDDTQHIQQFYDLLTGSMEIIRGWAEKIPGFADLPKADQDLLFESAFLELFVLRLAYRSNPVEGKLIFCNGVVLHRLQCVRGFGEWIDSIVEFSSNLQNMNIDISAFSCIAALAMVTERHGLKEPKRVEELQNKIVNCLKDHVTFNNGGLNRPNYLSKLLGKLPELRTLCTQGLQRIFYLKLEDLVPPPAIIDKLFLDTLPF
From the text: (§1) Full-length Nurr1 reporter gene assays. Activation of full length human Nurr1 was studied in transiently transfected HEK293T cells using the reporter plasmids pFR-Luc-NBRE^14, pFR-Luc-POMC^14 or pFR-Luc-DR5^14 each containing one copy of the respective human Nurr1 response element NBRE Nl3, NurRE, or DR5. The full length human nuclear receptor Nurr1 (pcDNA3.1-hNurr1-NE; Addgene plasmid #102363) and, for DR5, RXRα (pSG5-hRXR)^44 were overexpressed. pRL-SV40 (Promega) was used for normalization of transfection efficacy and to observe test compound toxicity. […] After 24 h, medium was changed to Opti-MEM without supplements and cells were transiently transfected using Lipofectamine LTX reagent (invitrogen) according to the manufacturer's protocol. Five hours after transfection, cells were incubated with the test compounds in Opti-MEM supplemented with penicillin (100 U/mL), streptomycin (100 µg/mL) and 0.1% DMSO for 16 h before luciferase activity was measured using the Dual-Glo Luciferase Assay System (Promega) according to the manufacturer's protocol on a Tecan Spark luminometer (Tecan Deutschland GmbH). Firefly luminescence was divided by Renilla luminescence and multiplied by 1000 resulting in relative light units (RLU) to normalize for transfection efficiency and cell growth. […]

[3] = Determination of aqueous solubility; format: physicochemical; conditions: water, 24 h, 25°C
Method: Determination of aqueous solubility. […] The mixture was agitated in a VWR Thermal Shake lite (VWR International GmbH, Darmstadt, Germany) for 24 h at 600 rpm and constant temperature of 25°C. The supersaturated mixtures were subsequently centrifuged at 23.300 rpm for 15 min (25 °C). Part of the supernatant was taken off for quantification by UV absorbance at 312 nm with external calibration. The external calibration samples contained 1% DMSO and the test samples were spiked with DMSO to 1% concentration right before the measurement. Absorbance was measured with a Tecan Spark luminometer (Tecan Deutschland GmbH, Crailsheim, Germany). The solubility test was repeated in three independent experiments, […]

[4] = target: T3, Nurr1 monomer (NBRE) (Homo sapiens, UniProt P43354); assay: Full-length Nurr1 reporter gene assay, response element NBRE; format: cell-based; conditions: result in words
T3 construct: The full length human nuclear receptor Nurr1 (pcDNA3.1-hNurr1-NE; Addgene plasmid #102363); NE (suffix in the plasmid name); host or cells: HEK293T
T3 sequence (P43354 whole entry): as above
From the text: as §1

[5] = target: T4, Nurr1-RXR heterodimer (DR5) (Homo sapiens, UniProt P43354); assay: Full-length Nurr1 reporter gene assay, response element DR5 with RXRα; format: cell-based
T4 construct: The full length human nuclear receptor Nurr1 (pcDNA3.1-hNurr1-NE; Addgene plasmid #102363); NE (suffix in the plasmid name); host or cells: HEK293T
T4 sequence (P43354 whole entry): as above
T4 sequence (P19793 whole entry partner): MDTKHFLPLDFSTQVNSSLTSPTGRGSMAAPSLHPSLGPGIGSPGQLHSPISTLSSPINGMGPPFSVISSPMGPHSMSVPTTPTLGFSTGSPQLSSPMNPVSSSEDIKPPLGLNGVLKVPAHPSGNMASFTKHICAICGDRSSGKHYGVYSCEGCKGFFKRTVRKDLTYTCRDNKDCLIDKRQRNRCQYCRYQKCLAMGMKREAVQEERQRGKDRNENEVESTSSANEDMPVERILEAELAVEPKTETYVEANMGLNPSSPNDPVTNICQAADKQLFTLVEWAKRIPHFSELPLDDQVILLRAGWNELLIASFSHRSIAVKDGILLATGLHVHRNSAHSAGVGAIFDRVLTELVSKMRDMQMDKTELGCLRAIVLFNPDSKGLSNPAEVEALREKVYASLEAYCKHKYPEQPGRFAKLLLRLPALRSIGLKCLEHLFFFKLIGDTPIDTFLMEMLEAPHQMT
From the text: Full-length Nurr1 reporter gene assays. Activation of full length human Nurr1 was studied in transiently transfected HEK293T cells using the reporter plasmids pFR-Luc-NBRE^14, pFR-Luc-POMC^14 or pFR-Luc-DR5^14 each containing one copy of the respective human Nurr1 response element NBRE Nl3, NurRE, or DR5. The full length human nuclear receptor Nurr1 (pcDNA3.1-hNurr1-NE; Addgene plasmid #102363) and, for DR5, RXRα (pSG5-hRXR)^44 were overexpressed. pRL-SV40 (Promega) was used for normalization of transfection efficacy and to observe test compound toxicity. […] After 24 h, medium was changed to Opti-MEM without supplements and cells were transiently transfected using Lipofectamine LTX reagent (invitrogen) according to the manufacturer's protocol. Five hours after transfection, cells were incubated with the test compounds in Opti-MEM supplemented with penicillin (100 U/mL), streptomycin (100 µg/mL) and 0.1% DMSO for 16 h before luciferase activity was measured using the Dual-Glo Luciferase Assay System (Promega) according to the manufacturer's protocol on a Tecan Spark luminometer (Tecan Deutschland GmbH). Firefly luminescence was divided by Renilla luminescence and multiplied by 1000 resulting in relative light units (RLU) to normalize for transfection efficiency and cell growth. Fold activation was obtained by dividing the mean RLU of test compound by the mean RLU of the untreated control. All samples were tested in at least three biologically independent experiments in duplicates. For dose-response curve fitting and calculation of EC50 values, the equation "[Agonist] vs. response -- Variable slope (four parameters)" was used in GraphPad Prism (version 7.00, GraphPad Software).

[6] = tested on: Nurr1-regulated tyrosine hydroxylase (TH), vesicular amino acid transporter 2 (VMAT2) and superoxide dismutase 2 (SOD2) in astrocytes (T98G); assay: Nurr1-regulated gene expression in T98G cells (qPCR); format: cell-based, human
[7] = target: T5, Nur77 (Homo sapiens, UniProt P22736); assay: Gal4 hybrid reporter gene assay, selectivity profiling (Nur77); format: cell-based
T5 construct: expressed in transfected cells; host or cells: HEK293T
T5 sequence (P22736 360-595 limits assumed): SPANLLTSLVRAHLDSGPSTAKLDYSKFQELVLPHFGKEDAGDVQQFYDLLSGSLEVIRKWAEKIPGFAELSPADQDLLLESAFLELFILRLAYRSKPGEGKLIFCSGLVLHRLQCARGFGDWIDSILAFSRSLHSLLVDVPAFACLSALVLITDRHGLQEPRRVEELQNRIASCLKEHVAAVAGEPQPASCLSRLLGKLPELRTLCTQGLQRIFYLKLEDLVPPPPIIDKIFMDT
Method: (§2) Hybrid reporter gene assays. Nurr1 modulation was determined in a Gal4 hybrid reporter gene assay in HEK293T cells (German Collection of Microorganisms and Cell Culture GmbH, DSMZ) using pFR-Luc (Stratagene, La Jolla, CA, USA; reporter), pRL-SV40 (Promega, Madison, WI, USA; internal control) and pFA-CMV-hNurr1-LBD^14, coding for the hinge region and ligand binding domain of the canonical isoform of human Nurr1. […] After 24 h, medium was changed to Opti-MEM without supplements and cells were transiently transfected using Lipofectamine LTX reagent (Invitrogen, Carlsbad, CA, USA) according to the manufacturer's protocol. Five hours after transfection, cells were incubated with the test compounds in Opti-MEM supplemented with penicillin (100 U/mL), streptomycin (100 µg/mL) and 0.1% DMSO for 16 h before luciferase activity was measured using the Dual-Glo Luciferase Assay System (Promega) according to the manufacturer's protocol on a Tecan Spark luminometer (Tecan Deutschland GmbH, Crailsheim, Germany). Firefly luminescence was divided by Renilla luminescence and multiplied by 1000 resulting in relative light units (RLU) to normalize for transfection efficiency and cell growth. Fold activation was obtained by dividing the mean RLU of test compound by the mean RLU of the untreated control. All samples were tested in at least three biologically independent experiments in duplicates. […]

[8] = target: T6, Nurr1 LBD (Homo sapiens, UniProt P43354); assay: Isothermal titration calorimetry (ITC); format: binding
T6 construct: Nurr1 LBD protein (10-30 µM, expressed as described previously^21); made in house
T6 sequence (P43354 360-595 limits assumed): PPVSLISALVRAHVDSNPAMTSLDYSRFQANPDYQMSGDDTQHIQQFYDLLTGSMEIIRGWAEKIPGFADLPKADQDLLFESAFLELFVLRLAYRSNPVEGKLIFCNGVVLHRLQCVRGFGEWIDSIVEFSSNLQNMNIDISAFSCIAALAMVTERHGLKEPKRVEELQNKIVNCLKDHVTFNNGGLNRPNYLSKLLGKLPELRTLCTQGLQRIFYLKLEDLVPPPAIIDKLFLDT
Method: Isothermal Titration Calorimetry (ITC). ITC experiments were conducted on an Affinity ITC instrument (TA Instruments, New Castle, DE) at 25°C with a stirring rate of 75 rpm. Nurr1 LBD protein (10-30 µM, expressed as described previously^21) in buffer (20 mM Tris pH 7.5, 100 mM NaCl, 5% glycerol) containing 1-4% DMSO was titrated with the test compounds (60-150 µM in the same buffer containing 1-4% DMSO) in 26 injections (1x 1 µL, 25x 3-4 µL) with an injection interval of 150 s. As control experiments, the test compounds were titrated to the buffer, and the buffer was titrated to the Nurr1 LBD protein under otherwise identical conditions. Results were analyzed using NanoAnalyze software (version 3.11.0, TA Instruments, New Castle, DE) with independent binding models.

[9] = target: T7, Nurr1 (Homo sapiens, UniProt P43354); assay: Gal4-Nurr1 hybrid reporter gene assay in HEK293T cells; format: cell-based; design: expressed in transfected cells; host or cells: HEK293T
Method: Hybrid reporter gene assays. Nurr1 modulation was determined in a Gal4 hybrid reporter gene assay in HEK293T cells (German Collection of Microorganisms and Cell Culture GmbH, DSMZ) using pFR-Luc (Stratagene, La Jolla, CA, USA; reporter), pRL-SV40 (Promega, Madison, WI, USA; internal control) and pFA-CMV-hNurr1-LBD^14, coding for the hinge region and ligand binding domain of the canonical isoform of human Nurr1. […] After 24 h, medium was changed to Opti-MEM without supplements and cells were transiently transfected using Lipofectamine LTX reagent (Invitrogen, Carlsbad, CA, USA) according to the manufacturer's protocol. Five hours after transfection, cells were incubated with the test compounds in Opti-MEM supplemented with penicillin (100 U/mL), streptomycin (100 µg/mL) and 0.1% DMSO for 16 h before luciferase activity was measured using the Dual-Glo Luciferase Assay System (Promega) according to the manufacturer's protocol on a Tecan Spark luminometer (Tecan Deutschland GmbH, Crailsheim, Germany). Firefly luminescence was divided by Renilla luminescence and multiplied by 1000 resulting in relative light units (RLU) to normalize for transfection efficiency and cell growth. Fold activation was obtained by dividing the mean RLU of test compound by the mean RLU of the untreated control. All samples were tested in at least three biologically independent experiments in duplicates. For dose-response curve fitting and calculation of EC50 values, the equation "[Agonist] vs. response -- Variable slope (four parameters)" was used in GraphPad Prism (version 7.00, GraphPad Software, La Jolla, CA, USA). Selectivity profiling was performed with identical procedures using pFA-CMV-Nur77-LBD^14, pFA-CMV-NOR-1-LBD^14, pFA-CMV-THRα-LBD^39, pFA-CMV-RARα-LBD^40, pFA-CMV-PPARα-LBD^41, pFA-CMV-PPARγ-LBD^41, pFA-CMV-PPARδ-LBD^41, pFA-CMV-LXRα-LBD^37, pFA-CMV-FXR-LBD^42 and pFA-CMV-hRXRα-LBD^43.
Target sequence in this assay (P43354 360-595 limits assumed): as above

[10] = Compound stability (observation); format: physicochemical; conditions: printed in the EC50 column of Table 1
[11] = tested on: THRα, RARα, PPARα, PPARγ, PPARδ, LXRα, FXR, RXRα; assay: Selectivity screening on nuclear receptors outside the NR4A family (Gal4 hybrid reporter gene assays); format: cell-based
Method: as §2

[12] = target: T7, Nurr1; assay: Ligand efficiency metrics; conditions: computed according to ref. 29
Target sequence in this assay (P43354 whole entry, the tested form may be a part, canonical isoform): as the sequence (P43354 whole entry) above

[13] = target: T7, Nurr1; conditions: Nurr1 agonism, literature values (refs. 24, 27, 28); cited from earlier work
Target sequence in this assay (P43354 whole entry, the tested form may be a part, canonical isoform): as the sequence (P43354 whole entry) above

[14] = 0.1 µM, 0.3 µM, mRNA vs. DMSO control

Structure (SMILES): Cc1nc2c(Cl)cccn2c1NC(=O)c1ccc(-c2ccccc2)[nH]1 [Compound 29]
- EC50(NOR-1) [1]: no effect; also recorded: no activation (10 µM)
- EC50(NurRE) ([2]; result in words, at 10 µM): no activation (10 µM)
- aq. solubility [3]: 4.1 µg/mL
- EC50(NBRE) ([4]; at 10 µM): no activation (10 µM)
- EC50(DR5) [+0.1 µM BEX] ([5]; result in words, at 10 µM): no activation (10 µM)
- induction of Nurr1-regulated gene expression ([6]; 10 µM): no effect; also recorded: no induction
- EC50(Nur77) ([7]; result in words, at 10 µM): no effect; also recorded: no activation (10 µM)
- Kd(Nurr1 LBD) ([8]; result in words, ITC with 100 µM 29 and 30 µM protein): no detectable binding; also recorded: no binding ^b
- less active than 36 as Nurr1 modulator [9]: more than 100 fold
- EC50(Nurr1) (max. activation) ([9]; result in words, at 10 µM): no Nurr1 agonism; also recorded: inactive (10 µM); also recorded: no activation (10 µM)

Structure (SMILES): Cc1[nH]c2c(Cl)cccc2c1N [Compound 6, 7-chloro-2-methyl-1H-indol-3-amine]
- stability [10]: not stable; also recorded: unstable

Structure (SMILES): Cc1nc2c(Cl)cccn2c1NC(=O)c1ccc(-c2ccc(N(C)C)cc2)o1 [Compound 36, N-(8-Chloro-2-methylimidazo[1,2-a]pyridin-3-yl)-5-(4-(dimethylamino)phenyl)furan-2-carboxamide]
- EC50 [2]: 94 ± 3 nM
- aq. solubility [3]: 6.8 µg/mL
- EC50(NBRE) ([4]; at 1 µM): inactive; also recorded: no activation (1 µM)
- selectivity ([11]; Nurr1 vs. nuclear receptors outside the NR4A family): > 30 fold
- activity outside the NR4A family ([11]; at 3 µM, n=3): no off-target activity
- enhancement of potency by bexarotene (factor) ([5]; DR5, 0.1 µM BEX): > 5
- EC50 ([5]; with 0.1 µM bexarotene (BEX)): 33 nM
- EC50 ([5]; without bexarotene, read-out: EC50(DR5)): 165 nM
- expression of superoxide dismutase 2 (SOD2) [6, 14]: induced expression
- expression of tyrosine hydroxylase (TH) [6, 14]: induced expression
- expression of vesicular amino acid transporter 2 (VMAT2) [6, 14]: induced expression
- EC50 [7]: 330 ± 40 nM
- Kd ([8]; ITC at 25°C): 170 nM
- EC50 ([9]; Gal4-Nurr1 hybrid reporter gene assay, mean±SD, n≥3): 90 ± 5 nM

Structure (SMILES): CCN(CC)Cc1cc(Nc2ccnc3cc(Cl)ccc23)ccc1O [Compound 1, amodiaquine]
- ligand efficiency (LE) [12]: 0.26
- size-independent ligand eff. (SILE) [12]: 1.79
- EC50 [13]: ~20000 nM

Reference: patent EP4596548A1, “NURR1 MODULATORS” (Ludwig-Maximilians-Universität, priority 2024, dated 2025)
